Results published in patent US6403055B1, “Diagnostic imaging contrast agent with improved in serum relaxivity” (Dibra S.p.A., priority 1996, dated 2002).

Columns and labels:
[1] = Relaxivity (r1, r2) in saline; assay type: physicochemical; settings: NaCl 0.15M in water - pH 7.3 - 20 MHz - 39° C.
Description: (§1) Relaxivity values of the contrast agent of the present invention have been tested either in saline or in human serum obtained by Seronorm™ Human, freeze-dried human serum produced by Nycomed Pharma AS, Oslo, Norway. Serum obtained from said Seronorm™ is substantially equivalent to the fresh one, so its use in the relaxivity determination grants a good picture of the “in vivo” behaviour and, further, an excellent reproducibility of this test.

[2] = Relaxivity (r1, r2) in human serum (Seronorm™ Human); assay type: physicochemical; settings: Between 0 and 1 mM (Seronorm™ Human) - 20 MHz - 39° C.
Description: as §1
The compounds object of the present invention are characterised by very high r1 and r2 relaxivity values. When measured in Seronorm™ Human at 20 MHz, at a temperature of 39° C., and at a concentration comprised from 0 to 1 mM, the compounds of the present invention have r1 relaxivity equal to or, preferably, higher than 15 s^−1mm^−1.

SMILES: CCC(C)C(C(=O)[O-])N(CCN(CCN(CC(=O)[O-])C(C(=O)[O-])C(C)CC)[C@H](C(=O)[O-])[C@@H](C)CC)CC(=O)[O-].[Gd+3].[Na+].[Na+] (relative stereo) [Compound 2, [[[1S-[1R*(1R*,2R*),2R*]]-N,N-Bis[2-[(carboxymethyl)(1-carboxy-2-methylbutyl)amino]ethyl]-L-isoleucinate-(5-)]gadolinate(2-)]disodium salt.]
- Relaxivity Saline r1 [1]: 5.07 mM⁻¹ s⁻¹
- Relaxivity Serum r1 [2]: 11.9 mM⁻¹ s⁻¹
